Measured values taken from the supplement of paper PMC13380429.

Assays:
Conditions in all cases: 72 h
[1] = test system: Caco-2; assay: cell viability relative to DMSO; higher = less toxic
[2] = test system: Calu-3; assay: as above
[3] = test system: HepG2; assay: as above
[4] = test system: U2OS; assay: as above
[5] = test system: Vero E6; assay: as above
[6] = test system: Caco-2; assay: relative viability EC50 (midpoint between 100% and the lowest measured viability); higher = less toxic
[7] = test system: Calu-3; assay: as above
[8] = test system: HepG2; assay: as above
[9] = test system: U2OS; assay: as above
[10] = test system: Vero E6; assay: as above
[11] = test system: Caco-2; assay: drug sensitivity score (DSS) for viability; higher = more toxic; extreme values may be limits of the assay
[12] = test system: Calu-3; assay: as above
[13] = test system: HepG2; assay: as above
[14] = test system: U2OS; assay: as above
[15] = test system: Vero E6; assay: as above

SMILES	cell viability ([1]; 1 nM)	cell viability ([1]; 10 nM)	cell viability ([1]; 100 nM)	cell viability ([1]; 1000 nM)	cell viability ([1]; 10000 nM)	cell viability ([2]; 1 nM)	cell viability ([2]; 10 nM)	cell viability ([2]; 100 nM)	cell viability ([2]; 1000 nM)	cell viability ([2]; 10000 nM)	cell viability ([3]; 1 nM)	cell viability ([3]; 10 nM)	cell viability ([3]; 100 nM)	cell viability ([3]; 1000 nM)	cell viability ([3]; 10000 nM)	cell viability ([4]; 1 nM)	cell viability ([4]; 10 nM)	cell viability ([4]; 100 nM)	cell viability ([4]; 1000 nM)	cell viability ([4]; 10000 nM)	cell viability ([5]; 1 nM)	cell viability ([5]; 10 nM)	cell viability ([5]; 100 nM)	cell viability ([5]; 1000 nM)	cell viability ([5]; 10000 nM)	relative viability EC50 [6]	relative viability EC50 [7]	relative viability EC50 [8]	relative viability EC50 [9]	relative viability EC50 [10]	drug sensitivity score [11]	drug sensitivity score [12]	drug sensitivity score [13]	drug sensitivity score [14]	drug sensitivity score [15]
CNCCCOc1cc(F)c(-c2c(Cl)nc3ncnn3c2N[C@@H](C)C(F)(F)F)c(F)c1 [cevipabulin]	102%	110%	72.3%	44.7%	48.1%	106%	116%	83.4%	43.7%	34.7%	96.8%	102%	29.3%	21.9%	22.8%	94.8%	102%	65.8%	25.6%	21%	105%	106%	89.5%	11.6%	8.3%	100 nM	237 nM	43.1 nM	121 nM	241 nM	13.7	12.5	22.9	18.1	17.9
Nc1ncnc(Nc2ccc(Cl)cc2)n1 [chlorazanil]	116%	97.7%	96.5%	101%	103%	104%	101%	103%	87.4%	98.4%	96.4%	93.9%	88%	93.7%	92.5%	101%	96.8%	97.8%	98.3%	99.6%	99.6%	101%	91%	98.6%	101%	> 10000 nM	> 10000 nM	> 10000 nM	> 10000 nM	> 10000 nM	0	0	0	0	0
CCN(CC)CCN(Cc1ccc(-c2ccc(C(F)(F)F)cc2)cc1)C(=O)Cn1c(SCc2ccc(F)cc2)nc(=O)c2c1CCC2 [darapladib]	93.5%	93.6%	98.9%	93.8%	13%	102%	95.7%	106%	90.2%	0.4%	91.8%	97.1%	85.3%	101%	0.3%	102%	98.3%	103%	98.4%	1.6%	91.9%	100%	90.1%	92.4%	45.1%	2590 nM	2350 nM	3210 nM	3050 nM	2050 nM	5.8	7.1	5.5	5.7	4.2
CC[C@H](CC[C@@H](C)[C@H]1CC[C@H]2[C@@H]3CC=C4C[C@@H](O[C@@H]5O[C@H](CO)[C@@H](O)[C@H](O)[C@H]5O)CC[C@]4(C)[C@H]3CC[C@]12C)C(C)C [daucosterol]	88.7%	99.4%	107%	102%	100%	98.4%	106%	99.3%	108%	110%	92.5%	96.2%	102%	101%	106%	97.2%	98.1%	101%	100%	103%	95.9%	100%	94.5%	90.5%	102%	> 10000 nM	> 10000 nM	> 10000 nM	> 10000 nM	> 10000 nM	0	0	0	0	0
C[C@H]1O[C@@H](O[C@H]2CC[C@@]3(C)[C@H](CC[C@@H]4[C@@H]3C[C@@H](O)[C@]3(C)[C@@H](C5=CC(=O)OC5)CC[C@]43O)C2)C[C@H](O)[C@@H]1O[C@H]1C[C@H](O)[C@H](O[C@H]2C[C@H](O)[C@H](O[C@@H]3O[C@H](CO)[C@@H](O)[C@H](O)[C@H]3O)[C@@H](C)O2)[C@@H](C)O1 [deslanoside]	98.3%	95%	69.8%	18.6%	20%	102%	97.2%	94.2%	28.1%	19.1%	89.4%	92.9%	76.2%	25.5%	6.7%	101%	98.9%	93.2%	5.9%	10.9%	96.7%	94.3%	14.8%	1.5%	1%	131 nM	356 nM	266 nM	258 nM	40.1 nM	18.5	14	16.7	18	28.7
CC(C)[C@@H](C)/C=C/[C@@H](C)[C@H]1CC[C@H]2/C(=C/C=C3\C[C@@H](O)CC[C@@H]3C)CCC[C@]12C [dihydrotachysterol]	108%	96%	100%	104%	103%	97.4%	99.7%	97.7%	99.6%	97.7%	92.8%	94.3%	95.8%	93.2%	106%	104%	93.1%	101%	99.3%	100%	101%	100%	98.1%	102%	110%	> 10000 nM	> 10000 nM	> 10000 nM	> 10000 nM	> 10000 nM	0	0	0	0	0
CN(C)CC/C=C1\c2ccccc2CSc2ccccc21 [dosulepin]	94.1%	108%	100%	117%	107%	90.7%	104%	101%	89.3%	87%	111%	93.5%	94.1%	92.6%	79.9%	90.7%	97.5%	96.4%	101%	96.6%	93.4%	97.3%	104%	96.5%	92.7%	> 10000 nM	> 10000 nM	> 10000 nM	> 10000 nM	> 10000 nM	0	0.6	0.9	0	0
